Patent US20050147565A1, “Pharmaceutical compositions for the treatment of asthma” (Schering Corporation, priority 2001, published 2005)
Blank lines part the entries; values can stand above or below the molecule they belong to.

How the values were obtained:
[1] = cited from earlier work
[2] = Andersen Cascade Impactor particle size distribution of the emitted dose of the metered dose inhaler; type: physicochemical; conditions: Formoterol/Mometasone 6/50 μg/actuation inhaler
Description: The formulations of the present invention were further analyzed using an Andersen Cascade Impactor as described in Examples 6 and 7. The Andersen Cascade Impactor is widely used for measuring the particle size distribution of airborne particles and more specifically pharmaceutical aerosols. The eight stage Andersen Impactor separates the sample into nine size intervals when used with a backup filter after the last impaction stage. In FIGS. 1 to 4, this corresponds Stage 0 of particles having a particle size less than 10 μm to a particle size of 0.65-0.43 μm in stage 8, with the final stage corresponding to the filter for particles less than 0.43 μm. The measurement of the particle size at the “throat” in the figures corresponds to the entry port of the Impactor. The fine particle fraction is defined as the percentage of particles having a particle size of less than 4.7 μm. The fine particle dose is defined as the amount in μg per dose that is less than 4.7 μm in size in each actuation. The μg/shot is the total amount of emitted drug product that exits the metered dose inhaler upon actuation. The determination of the particle size distribution of the emitted dose of the formulation using an Andersen Cascade Impactor is known to one of skill in the art.
A formulation containing 6 μg of formoterol fumarate and 50 μg of mometasone furoate using HFA 227 in the absence of a bulking agent or carrier in a metered dose inhaler was analyzed by an Andersen Cascade Impactor to 5 analyze the amount of active drug ingredients and the particle size of the actives exiting the inhaler over time. […] The metered dose for both actives over time was also within acceptable limits (62.9 to 63.3 for mometasone and 6.6 to 6.5 for formoterol at the 4 month point). […]
A formulation containing 6 μg of formoterol fumarate and 50 μg of mometasone furoate using HFA 134a with lactose as a bulking agent in a metered dose inhaler was analyzed by an Andersen Cascade Impactor to analyze the amount of active drug ingredients and the particle size of the actives exiting the inhaler over time. […] Additionally, the metered dose actually delivered was also maintained over time within acceptable limits (64.1 to 63.7 for mometasone, 6.9 to 6.6 for formoterol). The fine particle fraction for both mometasone and formoterol was maintained within acceptable limits.

[3] = Drug Content Uniformity (DCU) through the life of a 120 dose MDI; type: physicochemical; conditions: Formoterol/Mometasone 6/50 μg/actuation inhaler
Experimental: The Drug Content Uniformity (DCU) of the inhaler was measured throughout the life of a 120 dose MDI to ascertain whether there was a consistency of dose of the active ingredients throughout the life of the product. Five canisters of each formulation (HFA 227 or HFA 134a) were analyzed and each canister delivered 120 actuations of medication and the amount of actives exiting the inhaler per actuation was measured at varying actuations, e.g., numbers 11, 12, 13, 14, (beginning) 59, 60, 61, 62 (middle) and 117, 118, 119 and 120 (end). Means were determined for the beginning, middle and end actuations, and an overall mean was determined and set forth in Examples 9 and 10 above.

[4] = Percent change in fine particle size after temperature cycling; type: physicochemical
Description: A finer particle size distribution of the mometasone furoate improves the fine particle fraction of the formulation exiting the inhaler upon actuation of the metered dose inhaler. […] The aerodynamic particle size distribution is well within the range of a typical efficacious topical lung medication, e.g., greater than 50% of the particles are less than 4.7 microns.

[5] = cited from earlier work; remark: listed apart in the source
[6] = HFA 134a, low bulking agent (lactose), 1 Month, 4 C./40 C.
[7] = HFA 134a, low bulking agent (lactose), 1 Month, 40 C./75%
[8] = HFA 134a, low bulking agent (lactose), 3 Month, 4 C./40 C.
[9] = HFA 134a, low bulking agent (lactose), 4 Month, 25 C./60%
[10] = HFA 134a, low bulking agent (lactose), 4 Month, 40 C./75%
[11] = HFA 134a, low bulking agent (lactose), Initial
[12] = HFA 227, without bulking agent, 1 Month, 4 C./40 C.
[13] = HFA 227, without bulking agent, 1 Month, 40 C./75%
[14] = HFA 227, without bulking agent, 3 Month, 4 C./40 C.
[15] = HFA 227, without bulking agent, 4 Month, 25 C./60%
[16] = HFA 227, without bulking agent, 4 Month, 40 C./75%
[17] = HFA 227, without bulking agent, Initial
[18] = HFA 134a, low bulking agent, 1 Month, 4 C./40 C.
[19] = HFA 134a, low bulking agent, 1 Month, 40 C./75%
[20] = HFA 134a, low bulking agent, Initial
[21] = HFA 227, no bulking agent, 1 Month, 4 C./40 C.
[22] = HFA 227, no bulking agent, 1 Month, 40 C./75%
[23] = HFA 227, no bulking agent, Initial

Compound: COc1ccc(CC(C)NCC(O)c2ccc(O)c(NC=O)c2)cc1.COc1ccc(CC(C)NCC(O)c2ccc(O)c(NC=O)c2)cc1.O.O.O=C(O)/C=C/C(=O)O (racemic) [Formoterol Fumarate, (±)2-hydroxy-5-[(1RS)-1-hydroxy-2-[[(1RS)-2-(4-methoxyphenyly-1methylethyl]-amino]ethyl]formanilide fumarate dihydrate]
solubility in acetone [1]: practically insoluble | solubility in diethyl ether ([1]; diethyl ether): practically insoluble | solubility in ethanol [1]: sparingly soluble | solubility in ethyl acetate ([1]; ethyl acetate): practically insoluble | solubility in glacial acetic acid ([1]; glacial acetic acid): freely soluble | solubility in isopropanol [1]: sparingly soluble | solubility in methanol [1]: soluble | solubility in water [1]: slightly soluble | Fine Particle Dose (μg/shot) [2, 6]: 2.0 μg/shot | Fine Particle Fraction % [2, 6]: 38.0% | MMAD (microns) [2, 6]: 3.1 microns | Fine Particle Dose (μg/shot) [2, 7]: 2.1 μg/shot | Fine Particle Fraction % [2, 7]: 41.3% | MMAD (microns) [2, 7]: 2.9 microns | Fine Particle Dose (μg/shot) [2, 8]: 2.2 μg/shot | Fine Particle Fraction % [2, 8]: 40.2% | MMAD (microns) [2, 8]: 3.2 microns | Fine Particle Dose (μg/shot) [2, 9]: 2.3 μg/shot | Fine Particle Fraction % [2, 9]: 43.6% | MMAD (microns) [2, 9]: 3.0 microns | Fine Particle Dose (μg/shot) [2, 10]: 2.1 μg/shot | Fine Particle Fraction % [2, 10]: 40.3% | MMAD (microns) [2, 10]: 3.1 microns | Fine Particle Dose (μg/shot) [2, 11]: 2.4 μg/shot | Fine Particle Fraction % [2, 11]: 42.5% | MMAD (microns) [2, 11]: 2.9 microns | Fine Particle Dose (μg/shot) [2, 12]: 2.2 μg/shot | Fine Particle Fraction % [2, 12]: 39.0% | MMAD (microns) [2, 12]: 3.3 microns | μg/shot (metered dose) [2, 12]: 6.3 μg/shot | Fine Particle Dose (μg/shot) [2, 13]: 2.4 μg/shot | Fine Particle Fraction % [2, 13]: 41.1% | MMAD (microns) [2, 13]: 3.2 microns | μg/shot (metered dose) [2, 13]: 6.6 μg/shot | Fine Particle Dose (μg/shot) [2, 14]: 1.9 μg/shot | Fine Particle Fraction % [2, 14]: 35.2% | MMAD (microns) [2, 14]: 3.3 microns | μg/shot (metered dose) [2, 14]: 6.3 μg/shot | Fine Particle Dose (μg/shot) [2, 15]: 2.6 μg/shot | Fine Particle Fraction % [2, 15]: 47.3% | MMAD (microns) [2, 15]: 3.2 microns | μg/shot (metered dose) [2, 15]: 6.5 μg/shot | Fine Particle Dose (μg/shot) [2, 16]: 2.2 μg/shot | Fine Particle Fraction % [2, 16]: 40.1% | MMAD (microns) [2, 16]: 3.4 microns | μg/shot (metered dose) [2, 16]: 6.5 μg/shot | Fine Particle Dose (μg/shot) [2, 17]: 2.6 μg/shot | Fine Particle Fraction % [2, 17]: 46.3% | MMAD (microns) [2, 17]: 3.2 microns | μg/shot (metered dose) [2, 17]: 6.6 μg/shot | Overall Mean μg/shot [3, 18]: 5.6 μg/shot | Overall Mean μg/shot [3, 19]: 6.0 μg/shot | Overall Mean μg/shot [3, 20]: 6.2 μg/shot | Overall Mean μg/shot [3, 21]: 5.5 μg/shot | Overall Mean μg/shot [3, 22]: 5.7 μg/shot | Overall Mean μg/shot [3, 23]: 5.7 μg/shot

percent change in fine particle size ([4]; grade of mometasone used in Example 6 (coarse), two weeks of temperature cycling at −10° C. and 40° C.): about 50% | percent change in fine particle size ([4]; similar mdi using mometasone furoate alone, finer grade of mometasone furoate, same cycling conditions (two weeks, −10° C. and 40° C.)): ≤ 15% | Fine Particle Dose (μg/shot) [2, 6]: 10.6 μg/shot | Fine Particle Fraction % [2, 6]: 20.1% | MMAD (microns) [2, 6]: 4.3 microns | μg/shot (metered dose) [2, 6]: 65.0 μg/shot | Fine Particle Dose (μg/shot) [2, 7]: 10.1 μg/shot | Fine Particle Fraction % [2, 7]: 20.1% | MMAD (microns) [2, 7]: 4.3 microns | μg/shot (metered dose) [2, 7]: 62.2 μg/shot | Fine Particle Dose (μg/shot) [2, 8]: 10.0 μg/shot | Fine Particle Fraction % [2, 8]: 20.0% | MMAD (microns) [2, 8]: 4.6 microns | μg/shot (metered dose) [2, 8]: 62.6 μg/shot | Fine Particle Dose (μg/shot) [2, 9]: 11.4 μg/shot | Fine Particle Fraction % [2, 9]: 22.6% | MMAD (microns) [2, 9]: 4.3 microns | μg/shot (metered dose) [2, 9]: 62.1 μg/shot | Fine Particle Dose (μg/shot) [2, 10]: 8.8 μg/shot | Fine Particle Fraction % [2, 10]: 17.7% | MMAD (microns) [2, 10]: 4.5 microns | μg/shot (metered dose) [2, 10]: 63.7 μg/shot | Fine Particle Dose (μg/shot) [2, 11]: 13.6 μg/shot | Fine Particle Fraction % [2, 11]: 25.7% | MMAD (microns) [2, 11]: 3.9 microns | μg/shot (metered dose) [2, 11]: 64.1 μg/shot | Fine Particle Dose (μg/shot) [2, 12]: 9.2 μg/shot | Fine Particle Fraction % [2, 12]: 16.4% | MMAD (microns) [2, 12]: 5.0 microns | μg/shot (metered dose) [2, 12]: 62.6 μg/shot | Fine Particle Dose (μg/shot) [2, 13]: 13.9 μg/shot | Fine Particle Fraction % [2, 13]: 25.3% | MMAD (microns) [2, 13]: 4.1 microns | μg/shot (metered dose) [2, 13]: 62.4 μg/shot | Fine Particle Dose (μg/shot) [2, 14]: 5.3 μg/shot | Fine Particle Fraction % [2, 14]: 9.8% | MMAD (microns) [2, 14]: 6.3 microns | μg/shot (metered dose) [2, 14]: 60.5 μg/shot | Fine Particle Dose (μg/shot) [2, 15]: 16.1 μg/shot | Fine Particle Fraction % [2, 15]: 30.4% | MMAD (microns) [2, 15]: 4.2 microns | μg/shot (metered dose) [2, 15]: 61.5 μg/shot | Fine Particle Dose (μg/shot) [2, 16]: 10.4 μg/shot | Fine Particle Fraction % [2, 16]: 18.6% | MMAD (microns) [2, 16]: 4.6 microns | μg/shot (metered dose) [2, 16]: 63.3 μg/shot | Fine Particle Dose (μg/shot) [2, 17]: 19.7 μg/shot | Fine Particle Fraction % [2, 17]: 36.5% | MMAD (microns) [2, 17]: 3.7 microns | μg/shot (metered dose) [2, 17]: 62.9 μg/shot | Overall Mean μg/shot [3, 18]: 55.7 μg/shot | Overall Mean μg/shot [3, 19]: 57.0 μg/shot | Overall Mean μg/shot [3, 20]: 59.1 μg/shot | Overall Mean μg/shot [3, 21]: 55.6 μg/shot | Overall Mean μg/shot [3, 22]: 54.9 μg/shot | Overall Mean μg/shot [3, 23]: 54.7 μg/shot
Compound: C[C@@H]1C[C@H]2[C@@H]3CCC4=CC(=O)C=C[C@]4(C)[C@@]3(Cl)[C@@H](O)C[C@]2(C)[C@@]1(OC(=O)c1ccco1)C(=O)CCl [Mometasone Furoate, 9,21-Dichloro-11(beta), 17-dihydroxy-16(alpha)-methylpregna-1,4-diene-3,20-dione 17-(2 furoate)]
solubility in acetone [1]: soluble | solubility in chloroform ([1]; chloroform): soluble | solubility in ethanol [1]: slightly soluble | solubility in isopropanol [1]: slightly soluble | solubility in methanol [1]: slightly soluble | solubility in tetrahydrofuran ([1]; tetrahydrofuran): freely soluble | solubility in water [1]: practically insoluble | partition coefficient between octanol and water [5]: greater than 5000
